Several values for one entry are separate records, joined by “and”; a condition that tells them apart may be missing. Equal entries are not always repeated. Marks after values point to notes of the source that are not given here.
Assays:
[1] = biological target: T1, TGR (Schistosoma mansoni, UniProt Q962Y6); assay: Reversibility by jump dilution; assay type: biochemical; conditions: for % Activity (ID list), D0 / % Inhibition (ID list), D0: D0: diluted 1:100, activity determined immediately; for % Activity (ID list), D0 / % Inhibition (ID list), D0 / % Activity (ID list), D60 / % Inhibition (ID list), D60 / % Activity (ID list) / % Inhibition (ID list): list for plotting; for % Activity (ID list), D60 / % Inhibition (ID list), D60: D60: diluted 1:100, activity determined after 60 min; for % Activity, 0 min / % Activity, 60 min / % Activity, -15: relative to DMSO; for Inhibitor (rate), -15 / % Activity, -15: [-15]: 15 min preincubation inhibitor + TGR + NADPH, then activity determined, replicates; for % Activity (ID list) / % Inhibition (ID list): before dilution (-15)
T1 construct: made in house
T1 sequence (Q962Y6 1-598): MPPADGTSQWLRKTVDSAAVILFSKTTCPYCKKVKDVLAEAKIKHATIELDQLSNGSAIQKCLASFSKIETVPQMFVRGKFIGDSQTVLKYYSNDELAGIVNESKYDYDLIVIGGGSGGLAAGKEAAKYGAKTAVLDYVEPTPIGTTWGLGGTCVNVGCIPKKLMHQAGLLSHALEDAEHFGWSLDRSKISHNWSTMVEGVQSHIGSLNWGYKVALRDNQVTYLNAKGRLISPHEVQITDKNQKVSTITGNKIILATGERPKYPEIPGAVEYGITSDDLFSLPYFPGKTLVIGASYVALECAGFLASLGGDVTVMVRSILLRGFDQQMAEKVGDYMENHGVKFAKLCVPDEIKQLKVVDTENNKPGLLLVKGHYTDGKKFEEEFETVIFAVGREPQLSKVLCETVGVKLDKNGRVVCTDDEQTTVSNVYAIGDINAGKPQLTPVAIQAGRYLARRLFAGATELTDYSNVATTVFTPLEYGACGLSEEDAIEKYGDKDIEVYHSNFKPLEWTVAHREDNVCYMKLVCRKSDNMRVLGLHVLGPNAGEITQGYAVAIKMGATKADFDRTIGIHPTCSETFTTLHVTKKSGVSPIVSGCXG
Description: A reaction of 370 nM TGR, 100 µM NADPH, and 250 µM inhibitor was incubated for 15 min at room temperature. A 100x dilution of the reaction was made and the activity was determined immediately and after 60 min.

[2] = system: S. mansoni juvenile worms (21 days); assay: Schistosomicidal activity ex vivo, juvenile worms (21 days); assay type: cell-based; conditions: for LD50 ex vivo S. mansoni 21 days: juvenile worms, 48 h exposure
Description: Three-week old, female Swiss-Webster mice obtained from the Charles River were housed in the Comparative Research Center of Rush University Medical Center. Mice were infected by percutaneous tail exposure to about 200 S. mansoni or 50 S. japonicum cercaria for adult worms and about 1000 cercaria for juvenile S. mansoni worms through natural transdermal penetration of the cercariae for 1 h[81].
DMSO formulated compounds were diluted with phenol red free M199 medium or RPMI medium for NTS or juvenile and adult worms, respectively, at <1% DMSO final concentrations. NTS, juvenile and adult worms from overnight cultures were tested against compounds in triplicate. Controls were treated with DMSO alone or 5 µM AF as a positive control in appropriate medium. […] Schistosome viabilities in the presence of the compounds were assessed using this formula: % Viability = Averages of Test / Averages of DMSO Control x 100.

[3] = Cytotoxicity in mammalian cells (Cell Titer Glo); assay type: cell-based; conditions: African green monkey, Vero cells
Description: Following overnight incubation, formulated DMSO-compound stock solutions were diluted with DMEM at <1% DMSO final concentrations. […] Vero cells treated similarly with different concentrations of PZQ, MZM and AF (Cayman Chemicals) were used as positive controls.

[4] = [0, D0]: 15 min preincubation inhibitor + TGR + NADPH, diluted 1:100, then activity determined immediately
[5] = [60, D60]: 15 min preincubation inhibitor + TGR + NADPH, diluted 1:100, then activity determined after 60 min
[6] = 5 µM, relative to untreated control
[7] = 10 µM, relative to untreated control
[8] = 25 µM, relative to untreated control
[9] = 50 µM, relative to untreated control

| Compound | % Activity (ID list), D0 [1] | % Inhibition (ID list), D0 [1] | % Activity (ID list), D60 [1] | % Inhibition (ID list), D60 [1] | % Activity, 0 min [1, 4] | % Activity, 60 min [1, 5] | Inhibitor (rate), -15 ([1]; raw rate) | % Activity, -15 [1] | % Activity (ID list) [1] | % Inhibition (ID list) [1] | LD50 ex vivo S. mansoni 21 days [2] | viability at 24 h, 5 µM [3, 6] | viability at 24 h, 10 µM [3, 7] | viability at 24 h, 25 µM [3, 8] | viability at 24 h, 35 µM ([3]; relative to untreated control) | viability at 24 h, 50 µM [3, 9] | also measured |
| --- | --- | --- | --- | --- | --- | --- | --- | --- | --- | --- | --- | --- | --- | --- | --- | --- | --- |
| CC(=O)OC[C@H]1O[C@@H]([S-])[C@H](OC(C)=O)[C@@H](OC(C)=O)[C@@H]1OC(C)=O.CCP(CC)CC.[Au+] [AF, auranofin, reference compound] | 1.9% and -0.049% | 98.1% and 100.0% | 3.7% and -3.0% and -2.8% | 96.3% and 103.0% and 102.8% | 1.94% and 1.91% and -0.04934% | 3.69% and -3.0493% and -2.833% | 0.001018 and 0.001002 and 0.001033 | 0.7444% and 0.7656% and 0.7594% | 0.744% and 0.8% and 0.759% | 100.0% | 0.62 ± 0.01 µM |  |  |  |  |  | reversibility of TGR inhibition ([1]; 250 µM inhibitor, 100-fold jump dilution): irreversible; % viability ([2]; 23 day S. mansoni worms, 48 HR, Conc. 0.5 µM): 50.0296%; % viability ([2]; 23 day S. mansoni worms, 48 HR, Conc. 1 µM): 15.8933%; % viability ([2]; 23 day S. mansoni worms, 48 HR, Conc. 2.5 µM): 5.6364%; % viability ([2]; 23 day S. mansoni worms, 48 HR, Conc. 5 µM): 0.3335% |
| C#CCN(Cc1nc(-c2ccccc2)oc1C)[C@@H]1C[C@@H]2C[C@H]([C@H]1C)C2(C)C [Compound 6] | 75.6% and 75.7% and 80.1% | 24.4% and 24.3% and 19.9% | 78.0% and 78.9% and 78.3% | 22.0% and 21.1% and 21.7% | 75.6216% and 75.6995% and 80.0576% | 78.0175% and 78.8698% and 78.3361% | 0.0007205 and 0.001179 and -0.0005968 | 1.808% and 2.913% and -1.39% | 2.9% and -1.4% | 98.2% and 97.1% and 101.4% | >30^a µM |  |  |  |  |  | viability at 24 h, 1 µM ([3]; Conc. 1 µM): 99.1%; viability at 24 h, 5 µM ([3]; Conc. 5 µM): 99%; viability at 24 h, 10 µM ([3]; Conc. 10 µM): 91.1%; viability at 24 h, 25 µM ([3]; Conc. 25 µM): 86.8%; viability at 24 h, 50 µM ([3]; Conc. 50 µM): 79.9%; viability at 24 h, 100 µM ([3]; Conc. 100 µM): 63.9%; Inhibitor (rate), 0 min ([1]; [0, D0]: 15 min preincubation inhibitor + TGR + NADPH, diluted 1:100, then activity determined immediately, raw rate): 0.03741 and 0.03869 and 0.04167; Inhibitor (rate), 60 min ([1]; [60, D60]: 15 min preincubation inhibitor + TGR + NADPH, diluted 1:100, then activity determined after 60 min, raw rate): 0.03652 and 0.03852 and 0.03804; viability at 5 µM ([2]; Schistosoma mansoni, 23 day S. mansoni worms, 48 HR, Conc. 5 µM): 73.2%; viability at 15 µM ([2]; Schistosoma mansoni, 23 day S. mansoni worms, 48 HR, Conc. 15 µM): 60.7%; viability at 30 µM ([2]; Schistosoma mansoni, 23 day S. mansoni worms, 48 HR, Conc. 30 µM): 56.8% |
| C[C@@H]1N=C(c2ccccc2Cl)c2cc([N+](=O)[O-])ccc2NC1=O [MZM, meclonazepam, reference compound] |  |  |  |  |  |  |  |  |  |  | >50^a µM | 99.8% | 98.1% | 92.9% | 90.8% | 87% |  |
| O=C(C1CCCCC1)N1CC(=O)N2CCc3ccccc3C2C1 (centres unmarked) [PZQ, praziquantel] |  |  |  |  |  |  |  |  |  |  | >50^a µM | 97.1% | 98.3% | 92.3% | 89.1% | 88.9% |  |

Source: paper PMC10287695, “Non-covalent inhibitors of thioredoxin glutathione reductase with schistosomicidal activity in vivo” (Nature Communications, 2023)
